ChEMBL document CHEMBL3286309, “4,5-Di-substituted benzyl-imidazol-2-substituted amines as the structure template for the design and synthesis of reversal agents against P-gp-mediated multidrug resistance breast cancer cells” (Eur J Med Chem, 2014)

Assays:
[1] = Cytotoxicity against human MDA435/LCC6MDR cells after 5 days by MTS assay; format: functional, cell-based; conditions: 120 h
[2] = Cytotoxicity against human MDA435/LCC6 cells after 5 days by MTS assay; format: functional, cell-based; conditions: MDA-435/LCC6, 120 h
[3] = Cytotoxicity against human MDA435/LCC6MDR cells after 3 days by MTS assay; format: ADME, cell-based; conditions: 72 h
[4] = Cytotoxicity against human MDA435/LCC6 cells after 3 days by MTS assay; format: cell-based; conditions: MDA-435/LCC6, 72 h
L929 = assay: Cytotoxicity against mouse L929 cells after 3 days by MTS assay; format: cell-based; conditions: L929, 72 h

## CC(=O)O[C@H]1C(=O)[C@@]2(C)[C@H]([C@H](OC(=O)c3ccccc3)[C@]3(O)C[C@H](OC(=O)[C@H](O)[C@@H](NC(=O)c4ccccc4)c4ccccc4)C(C)=C1C3(C)C)[C@]1(OC(C)=O)CO[C@@H]1C[C@@H]2O [PACLITAXEL]
[1]
  IC50: 0.149 µM
[2]
  IC50: 0.0026 µM

## CCN(CC)c1ccc(Cc2c(Cc3ccc(OC)c(OC)c3)nc(N(C(=O)/C=C/c3cc(OC)c(OC)c(OC)c3)C(=O)/C=C/c3cc(OC)c(OC)c(OC)c3)n2C)cc1
[3]
  IC50: 9.1 µM
[4]
  IC50: 13.7 µM
L929
  IC50: 18.2 µM

## CCN(CC)c1ccc(Cc2c(Cc3ccc(OC)c(OC)c3)nc(NC(=O)c3cc(OC)c(OC)c(OC)c3)n2C)cc1
[3]
  IC50: 38.3 µM
[4]
  IC50: 45.2 µM
L929
  IC50: 47.4 µM
